The nature of experiment [1]: Luminescence Cell-Based Dose Response to Identify Activators of 5'UTR Stem-Loop Driven Prion Protein mRNA Translation in H4-C Neuroglioblastoma Cells. [Related pubchem assays: 1829 (Project Summary), 1814 (Primary HTS)]. In kind it is functional.
A short description of experiment [2]: Luminescence Cell-Based Dose Response HTS to Identify Activators of Luciferase Translation or Activity in H4 […] Cells. [Related pubchem assays: 1829 (Project Summary), 1814 (Primary HTS)]. It is filed as functional.
A further experiment deals with H4. Nature of the experiment: Luminescence Cell-Based Dose Response HTS to Identify Activators of 5'UTR Stem-Loop Driven Prion Protein mRNA Translation in H4 Neuroglioblastoma Cells. [Related pubchem assays: 1829 (Project Summary), 1814 (Primary HTS)]. The note with it: Homo sapiens. It is filed as functional.
Experiment [3] can be described thus: Luminescence Cell-Based Dose Response to Identify Activators of Luciferase Translation or Activity in H4-C Neuroglioblastoma Cells. [Related pubchem assays: 1829 (Project Summary), 1814 (Primary HTS)]. In kind it is functional.
Experiment [4] in a line: Luminescence Cell-Based Dose Confirmation to Identify Activators of 5'UTR Stem-Loop Driven Alpha-Synuclein mRNA Translation in H4 Neuroglioblastoma Cells. [Related pubchem assays: 1829 (Project Summary), 1814 (Primary HTS)]. In kind it is functional.
The target in another experiment is Cytochrome P450 2C9 (Homo sapiens, UniProt P11712). As to conditions: Potency.
Chain of Cytochrome P450 2C9 (P11712 whole entry): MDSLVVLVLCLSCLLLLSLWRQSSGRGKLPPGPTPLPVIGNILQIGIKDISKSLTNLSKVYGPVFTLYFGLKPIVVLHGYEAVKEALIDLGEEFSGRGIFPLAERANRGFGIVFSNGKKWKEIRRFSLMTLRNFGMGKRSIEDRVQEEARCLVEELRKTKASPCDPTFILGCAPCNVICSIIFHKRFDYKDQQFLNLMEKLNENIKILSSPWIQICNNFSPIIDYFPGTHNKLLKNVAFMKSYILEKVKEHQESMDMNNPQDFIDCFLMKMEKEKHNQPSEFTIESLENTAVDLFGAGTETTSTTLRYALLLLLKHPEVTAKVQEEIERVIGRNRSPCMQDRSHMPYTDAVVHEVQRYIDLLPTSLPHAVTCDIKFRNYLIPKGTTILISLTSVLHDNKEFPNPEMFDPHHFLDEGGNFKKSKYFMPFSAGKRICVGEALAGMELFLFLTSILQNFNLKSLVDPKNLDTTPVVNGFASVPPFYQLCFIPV
Experiment [5] can be described thus: mitochondrial function rescue without frataxin homolog – Friedreich's ataxia, plus single-dose screen, dose response (AID 1465).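 Further: yeast depleted of Yfh1p frataxin homolog grown on glycerol needing respiration; WST-1 tetrazolium dye reduction as measure of cellular dehydrogenase metabolic activity.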 In kind it is functional.
A further experiment addresses Troponin, cardiac muscle (Homo sapiens, UniProt P19429+P45379+P63316). Nature of the experiment: Fluorescence-based biochemical high throughput dose response assay for activators of the calcium sensitivity of cardiac Regulated Thin Filaments (RTF). [Related pubchem assays (depositor defined):AID493008, AID493018, AID504382, AID504383]. In kind it is protein-complex assay.

Experiment [6] addresses Eukaryotic translation initiation factor 4H (Homo sapiens, UniProt Q15056). Briefly: eIF4H binding inhibition – biochemical, uHTS, fluorescence polarization, translation initiation inhibitor project, primary screen (AID 2012). Background: Polarisation of emitted light reports the rotation of a fluorescent probe.
The target of experiment [7] is Polyadenylate-binding protein 1 (Homo sapiens, UniProt P11940). Briefly: blockers of PABP interaction with poly(A) – biochemical, fluorescence polarization, […] (AID 2014).
Chain of Polyadenylate-binding protein 1 (P11940 whole entry): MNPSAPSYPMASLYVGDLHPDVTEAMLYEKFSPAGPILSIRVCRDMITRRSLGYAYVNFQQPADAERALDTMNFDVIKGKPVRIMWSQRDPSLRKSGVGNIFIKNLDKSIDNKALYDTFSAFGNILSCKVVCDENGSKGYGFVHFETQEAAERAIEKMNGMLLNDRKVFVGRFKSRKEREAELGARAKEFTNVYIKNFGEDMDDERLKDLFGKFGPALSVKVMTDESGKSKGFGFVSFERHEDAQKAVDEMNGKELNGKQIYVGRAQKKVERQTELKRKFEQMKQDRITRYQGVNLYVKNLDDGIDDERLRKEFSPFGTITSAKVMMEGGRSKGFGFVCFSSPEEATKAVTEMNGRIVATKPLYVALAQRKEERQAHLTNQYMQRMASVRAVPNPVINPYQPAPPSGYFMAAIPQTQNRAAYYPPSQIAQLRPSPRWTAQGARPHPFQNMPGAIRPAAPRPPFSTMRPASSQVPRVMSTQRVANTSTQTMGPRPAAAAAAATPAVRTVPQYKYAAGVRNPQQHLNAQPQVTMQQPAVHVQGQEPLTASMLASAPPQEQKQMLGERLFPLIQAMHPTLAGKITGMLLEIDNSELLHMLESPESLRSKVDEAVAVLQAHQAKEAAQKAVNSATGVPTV
The next experiment addresses Cytochrome P450 2D6 (Homo sapiens, UniProt P10635).
The subject of the next experiment is HeLa. Nature of the experiment: Cytotoxicity counterscreen assay for transcriptional activators of heat shock protein 70 (Hsp70). [Related pubchem assays: 1203, 1252 ]. It is filed as functional. As to conditions: Homo sapiens. In general terms: Counterscreens check selectivity or assay interference.
Experiment [8] concerns the target T1, Alkaline phosphatase, tissue-nonspecific isozyme (Homo sapiens, UniProt P05186).
T1 sequence (P05186 whole entry): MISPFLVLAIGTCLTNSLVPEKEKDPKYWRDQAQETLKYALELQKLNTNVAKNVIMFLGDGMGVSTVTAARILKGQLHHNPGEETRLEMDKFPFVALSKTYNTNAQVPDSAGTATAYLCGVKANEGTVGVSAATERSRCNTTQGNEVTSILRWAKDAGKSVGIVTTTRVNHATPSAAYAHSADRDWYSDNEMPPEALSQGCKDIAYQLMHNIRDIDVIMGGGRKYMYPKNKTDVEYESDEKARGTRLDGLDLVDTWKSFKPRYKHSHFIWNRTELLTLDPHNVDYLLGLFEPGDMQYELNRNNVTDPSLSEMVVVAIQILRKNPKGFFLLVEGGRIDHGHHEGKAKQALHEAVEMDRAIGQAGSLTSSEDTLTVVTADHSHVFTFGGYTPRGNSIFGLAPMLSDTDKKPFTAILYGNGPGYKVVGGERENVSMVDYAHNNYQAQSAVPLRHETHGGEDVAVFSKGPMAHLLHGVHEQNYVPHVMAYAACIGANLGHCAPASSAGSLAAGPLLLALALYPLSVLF

Another experiment has as its target Cytochrome P450 2C19 (Homo sapiens, UniProt P33261). Nature of the experiment: Cytochrome panel assay with activity outcomes. Panel member name: p450-cyp2c19 Compounds with AC50 equal or less than 10 uM are considered active. In kind it is functional. As to conditions: read-out: AC50.
A further experiment concerns the target T2, Leucine aminopeptidase (Plasmodium falciparum 3D7, UniProt Q8IL11).
T2 sequence (Q8IL11 whole entry): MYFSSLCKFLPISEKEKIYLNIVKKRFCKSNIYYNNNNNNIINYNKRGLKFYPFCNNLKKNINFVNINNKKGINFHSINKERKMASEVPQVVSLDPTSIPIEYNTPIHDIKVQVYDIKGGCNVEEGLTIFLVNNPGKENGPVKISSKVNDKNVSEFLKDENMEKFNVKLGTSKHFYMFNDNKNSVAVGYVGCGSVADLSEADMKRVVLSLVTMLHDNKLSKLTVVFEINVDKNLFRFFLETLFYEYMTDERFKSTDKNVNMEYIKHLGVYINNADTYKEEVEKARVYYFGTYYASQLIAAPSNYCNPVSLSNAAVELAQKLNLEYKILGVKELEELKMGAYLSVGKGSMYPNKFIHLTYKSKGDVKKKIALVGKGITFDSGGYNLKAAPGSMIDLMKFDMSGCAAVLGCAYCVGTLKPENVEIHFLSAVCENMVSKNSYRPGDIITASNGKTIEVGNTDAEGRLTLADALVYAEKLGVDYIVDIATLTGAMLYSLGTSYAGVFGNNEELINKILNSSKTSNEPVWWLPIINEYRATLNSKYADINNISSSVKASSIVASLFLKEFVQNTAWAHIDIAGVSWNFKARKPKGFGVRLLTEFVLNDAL
Nature of the experiment: P. falciparum M17LAP inhibitors, primary screen, biochemical, fluorogenic H-Leu-NHMec substrate, 1536-well (AID 1619). It is filed as functional.

A further experiment concerns the target T3, Aminopeptidase N (Plasmodium falciparum FcB1/Columbia, UniProt O96935).
T3 sequence (O96935 whole entry): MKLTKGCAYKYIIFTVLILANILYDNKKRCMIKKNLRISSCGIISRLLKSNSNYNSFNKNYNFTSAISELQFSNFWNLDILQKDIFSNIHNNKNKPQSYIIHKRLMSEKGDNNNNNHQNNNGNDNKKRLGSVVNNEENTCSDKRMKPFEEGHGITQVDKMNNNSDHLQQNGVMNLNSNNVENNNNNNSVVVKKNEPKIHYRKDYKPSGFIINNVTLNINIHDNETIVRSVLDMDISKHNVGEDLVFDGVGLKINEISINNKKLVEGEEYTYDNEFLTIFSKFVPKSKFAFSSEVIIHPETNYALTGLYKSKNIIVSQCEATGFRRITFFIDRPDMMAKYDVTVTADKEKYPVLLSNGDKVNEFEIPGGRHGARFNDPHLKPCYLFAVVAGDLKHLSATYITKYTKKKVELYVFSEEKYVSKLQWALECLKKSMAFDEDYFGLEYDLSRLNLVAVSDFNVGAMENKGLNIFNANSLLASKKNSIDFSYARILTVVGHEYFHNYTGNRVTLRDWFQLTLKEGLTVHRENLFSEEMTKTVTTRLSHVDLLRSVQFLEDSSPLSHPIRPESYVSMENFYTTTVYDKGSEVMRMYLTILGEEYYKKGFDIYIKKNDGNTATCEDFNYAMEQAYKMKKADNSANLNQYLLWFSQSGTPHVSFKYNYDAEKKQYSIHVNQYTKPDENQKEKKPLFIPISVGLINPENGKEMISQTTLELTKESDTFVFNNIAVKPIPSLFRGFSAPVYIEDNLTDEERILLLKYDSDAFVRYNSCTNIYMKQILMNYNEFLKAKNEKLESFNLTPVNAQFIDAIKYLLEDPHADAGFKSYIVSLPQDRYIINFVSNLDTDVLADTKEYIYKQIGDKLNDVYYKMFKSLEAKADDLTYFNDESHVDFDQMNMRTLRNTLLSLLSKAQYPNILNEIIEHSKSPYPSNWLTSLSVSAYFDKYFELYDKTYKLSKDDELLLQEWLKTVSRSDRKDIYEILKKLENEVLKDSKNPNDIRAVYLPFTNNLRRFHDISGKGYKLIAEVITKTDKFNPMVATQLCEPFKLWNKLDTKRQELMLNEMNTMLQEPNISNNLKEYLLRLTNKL
Briefly: malaria alanyl aminopeptidase activity blockers – biochemical, fluorogenic H-Leu-NHMec substrate, 1536-well (AID 1445). More on the design: species or system Plasmodium falciparum 3D7, 3D7.

For the next experiment, the target named is NS3 (Hepatitis C virus, UniProt A3EZJ3). Briefly: PubChem AID 2173. More on the design: species or system Hepacivirus hominis.
Chain of NS3 (A3EZJ3 whole entry): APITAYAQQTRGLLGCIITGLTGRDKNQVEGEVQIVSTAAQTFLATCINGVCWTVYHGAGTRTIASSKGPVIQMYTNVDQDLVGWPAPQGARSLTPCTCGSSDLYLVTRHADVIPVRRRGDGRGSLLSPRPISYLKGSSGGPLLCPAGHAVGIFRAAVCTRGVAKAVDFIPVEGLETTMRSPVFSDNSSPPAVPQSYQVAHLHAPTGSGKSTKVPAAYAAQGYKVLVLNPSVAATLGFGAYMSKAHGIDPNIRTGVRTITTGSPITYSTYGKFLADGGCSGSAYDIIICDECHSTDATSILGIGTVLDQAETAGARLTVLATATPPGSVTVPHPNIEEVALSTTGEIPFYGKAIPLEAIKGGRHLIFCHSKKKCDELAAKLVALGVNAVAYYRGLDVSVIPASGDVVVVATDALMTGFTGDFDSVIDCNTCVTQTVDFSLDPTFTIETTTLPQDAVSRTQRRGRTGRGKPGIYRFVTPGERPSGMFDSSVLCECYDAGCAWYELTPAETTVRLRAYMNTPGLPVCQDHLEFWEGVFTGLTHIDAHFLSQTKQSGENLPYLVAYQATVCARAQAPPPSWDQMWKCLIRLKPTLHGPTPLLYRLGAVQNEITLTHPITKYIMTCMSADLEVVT
For experiment [9], the target named is FAD-linked sulfhydryl oxidase ALR (Homo sapiens, UniProt P55789). Nature of the experiment: ALR-catalysed DTT oxidation blockers – biochemical, H2O2 detection, luminescence, cherry-pick, dose response (AID 493248).
Chain of FAD-linked sulfhydryl oxidase ALR (P55789 whole entry): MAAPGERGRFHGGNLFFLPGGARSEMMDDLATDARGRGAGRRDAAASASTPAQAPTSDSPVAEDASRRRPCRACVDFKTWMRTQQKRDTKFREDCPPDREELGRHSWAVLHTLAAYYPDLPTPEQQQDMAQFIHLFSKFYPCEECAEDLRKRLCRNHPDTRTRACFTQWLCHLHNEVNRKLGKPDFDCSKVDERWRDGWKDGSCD

Structures are written as SMILES. Calls of active or inactive are those of the source. Some results are limits rather than exact numbers.

In general, EC50 refers to the concentration at which the effect is half-maximal. The AC50 is the concentration at which the activity in the assay is half-maximal. The IC50 is the midpoint of a concentration-inhibition curve. For orientation: CC50 means the concentration giving 50% cytotoxicity. Low values mean harm at low concentration, high ones better tolerance by the cells.
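Wherever CC50 is given: cells exposed to compound for 16 hours before readout.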

Chain of Cytochrome P450 2C19 (P33261 whole entry): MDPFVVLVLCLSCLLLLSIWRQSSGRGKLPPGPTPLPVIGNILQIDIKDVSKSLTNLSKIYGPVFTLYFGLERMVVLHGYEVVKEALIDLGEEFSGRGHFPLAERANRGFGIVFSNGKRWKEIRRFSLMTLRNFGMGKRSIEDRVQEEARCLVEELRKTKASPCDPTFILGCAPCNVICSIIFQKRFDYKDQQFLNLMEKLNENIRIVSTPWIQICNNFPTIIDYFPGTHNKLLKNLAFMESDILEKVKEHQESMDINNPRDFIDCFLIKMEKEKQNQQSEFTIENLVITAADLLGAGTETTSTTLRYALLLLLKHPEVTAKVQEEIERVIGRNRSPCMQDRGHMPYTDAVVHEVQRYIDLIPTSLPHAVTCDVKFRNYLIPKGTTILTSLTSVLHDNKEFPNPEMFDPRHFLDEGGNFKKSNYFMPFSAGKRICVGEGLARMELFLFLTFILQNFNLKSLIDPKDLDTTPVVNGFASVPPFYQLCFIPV
Chain of Cytochrome P450 2D6 (P10635 whole entry): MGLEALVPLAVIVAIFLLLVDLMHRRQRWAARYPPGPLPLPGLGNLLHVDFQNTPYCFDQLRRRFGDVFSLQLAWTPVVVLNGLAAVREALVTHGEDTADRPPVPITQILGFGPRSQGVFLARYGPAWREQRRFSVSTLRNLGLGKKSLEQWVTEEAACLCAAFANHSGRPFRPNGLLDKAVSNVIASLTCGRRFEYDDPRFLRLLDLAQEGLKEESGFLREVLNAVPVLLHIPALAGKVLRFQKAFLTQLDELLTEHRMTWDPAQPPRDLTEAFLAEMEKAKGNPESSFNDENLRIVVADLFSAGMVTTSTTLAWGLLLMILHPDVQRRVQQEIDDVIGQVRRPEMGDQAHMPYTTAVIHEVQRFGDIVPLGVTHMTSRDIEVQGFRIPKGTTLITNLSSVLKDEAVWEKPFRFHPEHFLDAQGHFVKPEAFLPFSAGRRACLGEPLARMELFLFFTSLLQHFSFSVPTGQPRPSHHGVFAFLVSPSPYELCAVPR

Regarding `Cc1ccc(-n2c(C)cc(/C=C3\SC(=O)NC3=O)c2C)cc1`, the EC50 is 0.512 µM (active) in [1]; < 0.1 µM (inconclusive) in experiment [2]; 0.749 µM (active) in the experiment with H4; 0.401 µM (active) in experiment [3]; 0.344 µM (active) in experiment [4].

On to `CC(C)C[C@H]1C(=O)N2CCC[C@@H]2[C@]2(O)O[C@](NC(=O)[C@H]3C=C4c5cccc6[nH]cc(c56)C[C@H]4N(C)C3)(C(C)C)C(=O)N12`, for which the AC50 at Cytochrome P450 2C9 is 12.6 µM (inconclusive).

In the case of `CCCN1C=CC(=CC=C(C#N)C#N)C=C1`, the EC50 in experiment [5] was > 100 µM (active); on Troponin, cardiac muscle, 7.62 µM (active).

On to `CCOc1ccc(NC(=O)C2CCCN2C(=O)Oc2ccccc2)cc1` (stereo unspecified), for which the IC50 was > 100 µM (inactive) in [6] and 1.85 µM (active) in [7].

In the case of `CN1CCc2cc3c(cc2[C@@H]1[C@@H]1OC(=O)c2c1ccc1c2OCO1)OCO3`, the results for the concentration at half-maximal activity (AC50) on Cytochrome P450 2C9 and at Cytochrome P450 2D6 were 39.8 µM (inconclusive) and 12.6 µM (inconclusive), respectively.

With `N#C/C(=C\c1ccc(N2CCOCC2)o1)C(=O)NCCc1ccccc1`, the EC50 in experiment [5] was > 100 µM (active).

With `Cc1c(O)ccc(C(=O)CN2CCN(Cc3ccc4c(c3)OCO4)CC2)c1O`, the cytotoxic concentration (CC50) with HeLa is recorded as > 99 µM (not active).

As to `CCNC(=S)NNC(=O)c1cc(CC(C)C)nc2ccccc12`, the concentration giving a half-maximal response (EC50) in [8] is listed as 63 µM (not active). The AC50 on Cytochrome P450 2C19 was 0.178 µM (inconclusive).

Regarding `COc1ccc(S(=O)(=O)NC2=NC(=O)/C(=C/c3ccco3)S2)cc1`, the IC50 is 124 µM (active) at Leucine aminopeptidase, 99.7 µM (active) at Aminopeptidase N and 6.31 µM (active) at NS3. Moreover, the AC50 in [9] was 14.6 µM (active).

As for `O=C(Oc1ccc(F)cc1C(=O)/C=C/c1cccs1)c1cccc([N+](=O)[O-])c1`, the CC50 in the experiment with HeLa is > 33 µM (not active).

With `Oc1c(/C=N/Nc2cccc3cccnc23)ccc2ccccc12`, the EC50 in experiment [8] is given as > 100 µM (not active).

As for `COc1ccc(C(=O)/N=c2\sc3c(C)ccc(OC)c3n2C)cc1OC`, the EC50 is 0.484 µM (active) in experiment [1], < 0.1 µM (inconclusive) in experiment [2], 0.405 µM (active) in experiment [3] and 0.256 µM (active) in experiment [4].
